Reference: patent publication US20170100489A1, “POLYETHYLENE GLYCOL-MODIFIED INTEGRIN BLOCKER HM-3 AND USE THEREOF” (HANMEI XU, priority 2012, published 2017)
Marks after values point to notes of the source that are not given here. Where no end group is shown, it is not given here. mPEG‑SC20k = methoxy polyethylene glycol-succinimidyl-carbonate, 20000 Da

Key:
[1] = tested on: human cervical cancer HeLa xenograft tumors; experiment: Tumor growth inhibition, HeLa xenograft; conditions: for Rate of inhibiting tumors / Tumor weight: Once 3 days
Protocol: Human cervical cancer HeLa cell lines in logarithmic growth phase were picked, and made into 5×10^7/ml cell suspension of under sterile conditions, and then 0.1 ml suspension was inoculated subcutaneously at the right armpit of nude mice. Tumor diameter was measured with a vernier caliper. The animals which had tumors with a size of 100-200 mm^3 were randomly divided into groups. The effect of polypeptide on anti-tumor was dynamically observed through the method of measuring tumor diameter. The times of measuring tumor diameter were once 2 days, and meantime, weighed mice. The mice in experimental group were infused polypeptide through tail vein. The mice in the placebo group were injected saline with the same volume, once 1 day; Taxol group: 10 mg/kg, once 1 week; Endostar group: 2.5 mg/kg, once 1 day; The groups of high, intermediate and low polypeptide: 6, 3, 1.5 mg/kg, respectively, once 1 day. After administration, all mice were sacrificed. Stripped the tumors and weighed.

[2] = tested on: human gallbladder cancer GBC-SD xenograft tumors; experiment: Tumor growth inhibition, GBC-SD xenograft; conditions: for Rate of inhibiting tumors / Tumor weight: Once 3 day
Protocol: Human gallbladder cancer GBC-SD cell lines in logarithmic growth phase were picked and made into 5×10^7/ml cell suspension of under sterile conditions, and then 0.1 ml suspension was inoculated subcutaneously at the right armpit of nude mice. Tumor diameter was measured with a vernier caliper. The animals which had tumors with a size of 100-200 mm^3 were randomly divided into groups. The effect of polypeptide on anti-tumor was dynamically observed through the method of measuring tumor diameter. The times of measuring tumor diameter were once 2 days, and meantime, weighed mice. The mice in experimental group were infused polypeptide through tail vein. The mice in the placebo group were injected saline with the same volume, once 1 day; Taxol group: 10 mg/kg, once 1 week; Endostar group: 2.5 mg/kg, once 1 day; The groups of high, intermediate and low polypeptide: 6, 3, 1.5 mg/kg, respectively, once 1 day. After administration, all mice were sacrificed. Stripped the tumors and weighed.

[3] = tested on: human endometrial cancer HHUA xenograft tumors; experiment: Tumor growth inhibition, HHUA xenograft; conditions: for Rate of inhibiting tumors / Tumor weight: Once 3 days
Protocol: Human endometrial cancer HHUA cell lines in logarithmic growth phase were picked, and made into 5×10^7/ml cell suspension of under sterile conditions, and then 0.1 ml suspension was inoculated subcutaneously at the right armpit of nude mice. Tumor diameter was measured with a vernier caliper. The animals which had tumors with a size of 100-200 mm^3 were randomly divided into groups. The effect of polypeptide on anti-tumor was dynamically observed through the method of measuring tumor diameter. The times of measuring tumor diameter were once 2 days, and meantime, weighed mice. The mice in experimental group were infused polypeptide through tail vein. The mice in the placebo group were injected saline with the same volume, once 1 day; Taxol group: 10 mg/kg, once 1 week; Endostar group: 2.5 mg/kg, once 1 day; The groups of high, intermediate and low polypeptide: 6, 3, 1.5 mg/kg, respectively, once 1 day. After administration, all mice were sacrificed. Stripped the tumors and weighed.

[4] = tested on: human breast cancer MDA-MB-231 xenograft tumors; experiment: Tumor growth inhibition, MDA-MB-231 xenograft; conditions: for Rate of inhibiting tumors / Tumor weight: Once 3 days
Protocol: Picked the tumor tissue of vigorous growth and was cut into pieces of about 1.5 mm^3. Under sterile conditions, the tumor tissue was inoculated subcutaneously on the right of nude mice. Tumor diameter was measured with a vernier caliper. The animals which had tumors with a size of 100-200 mm^3 were randomly divided into groups. The effect of polypeptide on anti-tumor was dynamically observed through the method of measuring tumor diameter. The times of measuring tumor diameter were once 2 days, and meantime, weighed mice. The mice in experimental group were infused polypeptide through tail vein, once 3 days. The mice in the placebo group were injected saline with the same volume. Tumor volume formula: TV=0.52×a×b^2
a, b respectively represent the length and width. According to the result of measurement, calculate the relative tumor volume. Evaluation of antitumor activity is relative tumor proliferation rate T/C(%). The formula is as follows: T/C(%)^=TRTV/CRTV×100%
TRTV: Treatment group RTV; CRTV: negative control group RTV

[5] = tested on: human ovarian cancer SK-OV-3 xenograft tumors; experiment: Tumor growth inhibition, SK-OV-3 xenograft; conditions: for Rate of inhibiting tumors / Tumor weight: Once 3 days
Protocol: Human ovarian cancer SK-OV-3 cell lines in logarithmic growth phase were picked, and made into 5×10^7/ml cell suspension of under sterile conditions, and then 0.1 ml suspension was inoculated subcutaneously at the right armpit of nude mice. Tumor diameter was measured with a vernier caliper. The animals which had tumors with a size of 100-200 mm^3 were randomly divided into groups. The effect of polypeptide on anti-tumor was dynamically observed through the method of measuring tumor diameter. The times of measuring tumor diameter were once 2 days, and meantime, weighed mice. The mice in experimental group were infused polypeptide through tail vein. The mice in the placebo group were injected saline with the same volume, once 1 day; Cisplatin group: 10 mg/kg, once 1 week; Endostar group: 2.5 mg/kg, once 1 day; The groups of high, intermediate and low polypeptide: 6, 3, 1.5 mg/kg, respectively, once 1 day. After administration, all mice were sacrificed. Stripped the tumors and weighed.

[6] = tested on: human prostate cancer DU-145 xenograft tumors; experiment: Tumor growth inhibition, DU-145 xenograft; conditions: for Rate of inhibiting tumors / Tumor weight: Once 3 days
Protocol: Human prostate cancer DU-145 cell lines in logarithmic growth phase were picked, and made into 5×10^7/ml cell suspension of under sterile conditions, and then 0.1 ml suspension was inoculated subcutaneously at the right armpit of nude mice. Tumor diameter was measured with a vernier caliper. The animals which had tumors with a size of 100-200 mm^3 were randomly divided into groups. The effect of polypeptide on anti-tumor was dynamically observed through the method of measuring tumor diameter. The times of measuring tumor diameter were once 2 days, and meantime, weighed mice. The mice in experimental group were infused polypeptide through tail vein. The mice in the placebo group were injected saline with the same volume, once 1 day; Cisplatin group: 10 mg/kg, once 1 week; Endostar group: 2.5 mg/kg, once 1 day; The groups of high, intermediate and low polypeptide: 6, 3, 1.5 mg/kg, respectively, once 1 day. After administration, all mice were sacrificed. Stripped the tumors and weighed.

[7] = tested on: sarcoma HT-1080 xenograft tumors; experiment: Tumor growth inhibition, HT-1080 xenograft; conditions: 36.7 mg/kg
Protocol: Tumor diameter was measured with a vernier caliper. […] After administration, all mice were sacrificed. Stripped the tumors and weighed.

[8] = tested on: human nasopharyngeal cancer CNE xenograft tumors; experiment: Tumor growth inhibition, CNE xenograft; conditions: for Rate of inhibiting tumors / Tumor weight: Once 3 days
Protocol: Picked the tumor tissue of vigorous growth and was cut into pieces of about 1.5 mm^3. Under sterile conditions, the tumor tissue was inoculated subcutaneously on the right of nude mice. Tumor diameter was measured with a vernier caliper. The animals which had tumors with a size of 100-200 mm^3 were randomly divided into groups. The effect of polypeptide on anti-tumor was dynamically observed through the method of measuring tumor diameter. The times of measuring tumor diameter were once 2 days, and meantime, weighed mice. The mice in experimental group were infused polypeptide through tail vein, once 3 days. The mice in the placebo group were injected saline with the same volume. Tumor volume formula:
a, b respectively represent the length and width. According to the result of measurement, calculate the relative tumor volume. Evaluation of antitumor activity is relative tumor proliferation rate T/C(%). The formula is as follows: T/C(%)^−TRTV/CRTV×100%
TRTV: Treatment Group RTV; CRTV: Negative Control Group RTV

[9] = high, 36.7 mg/kg, listed as polypeptide
[10] = intermediate, 18.75 mg/kg, listed as polypeptide
[11] = low, 9.38 mg/kg, listed as polypeptide

Substance: mPEG-SC20k-Ile-Val-Arg-Arg-Ala-Asp-Arg-Ala-Ala-Val-Pro-Gly-Gly-Gly-Gly-Arg-Gly-Asp ({mPEG‑SC20k}-IVRRADRAAVPGGGGRGD) [mPEG-SC20k-HM-3]
- inhibition of tumor growth compared with negative control ([1]; 36.7 mg/kg, P<0.05): significant inhibition role
- Rate of inhibiting tumors ([1]; high, 36.7 mg/kg): 82.07%*
- Tumor weight ([1]; high, 36.7 mg/kg): 0.222 g
- Rate of inhibiting tumors [1, 9]: 82.07%
- Rate of inhibiting tumors ([1]; intermediate, 18.75 mg/kg): 74.11%
- Tumor weight ([1]; intermediate, 18.75 mg/kg): 0.320 g
- Rate of inhibiting tumors [1, 10]: 74.11%
- Rate of inhibiting tumors ([1]; low, 9.38 mg/kg): 63.32%
- Tumor weight ([1]; low, 9.38 mg/kg): 0.453 g
- Rate of inhibiting tumors [1, 11]: 63.32%
- inhibition of tumor growth compared with negative control ([2]; 36.7 mg/kg, P<0.05): significant inhibition role
- Rate of inhibiting tumors ([2]; high, 36.7 mg/kg): 61.45%*
- Tumor weight ([2]; high, 36.7 mg/kg): 0.409 g
- Rate of inhibiting tumors [2, 9]: 61.45%
- Rate of inhibiting tumors ([2]; intermediate, 18.75 mg/kg): 50.59%
- Tumor weight ([2]; intermediate, 18.75 mg/kg): 0.524 g
- Rate of inhibiting tumors [2, 10]: 50.59%
- Rate of inhibiting tumors ([2]; low, 9.38 mg/kg): 40.32%
- Tumor weight ([2]; low, 9.38 mg/kg): 0.633 g
- Rate of inhibiting tumors [2, 11]: 40.32%
- inhibition of tumor growth compared with negative control ([3]; 36.7 mg/kg, P<0.05): significant inhibition role
- Rate of inhibiting tumors ([3]; high, 36.7 mg/kg): 62.47%*
- Tumor weight ([3]; high, 36.7 mg/kg): 0.453 g
- Rate of inhibiting tumors [3, 9]: 62.47%
- Rate of inhibiting tumors ([3]; intermediate, 18.75 mg/kg): 53.65%
- Tumor weight ([3]; intermediate, 18.75 mg/kg): 0.560 g
- Rate of inhibiting tumors [3, 10]: 53.65%
- Rate of inhibiting tumors ([3]; low, 9.38 mg/kg): 51.38%
- Tumor weight ([3]; low, 9.38 mg/kg): 0.587 g
- Rate of inhibiting tumors [3, 11]: 51.38%
- inhibition of tumor growth compared with negative control ([4]; 36.7 mg/kg, P<0.05): significant inhibition role
- Rate of inhibiting tumors ([4]; high, 36.7 mg/kg): 63.05%*
- Tumor weight ([4]; high, 36.7 mg/kg): 0.459 g
- Rate of inhibiting tumors [4, 9]: 63.05%
- Rate of inhibiting tumors ([4]; intermediate, 18.75 mg/kg): 59.11%
- Tumor weight ([4]; intermediate, 18.75 mg/kg): 0.508 g
- Rate of inhibiting tumors [4, 10]: 59.11%
- Rate of inhibiting tumors ([4]; low, 9.38 mg/kg): 51.01%
- Tumor weight ([4]; low, 9.38 mg/kg): 0.609 g
- Rate of inhibiting tumors [4, 11]: 51.01%
- inhibition of tumor growth compared with negative control ([5]; 36.7 mg/kg, P<0.05): significant inhibition role
- Rate of inhibiting tumors ([5]; high, 36.7 mg/kg): 50.40%*
- Tumor weight ([5]; high, 36.7 mg/kg): 0.627 g
- Rate of inhibiting tumors [5, 9]: 50.40%
- Rate of inhibiting tumors ([5]; intermediate, 18.75 mg/kg): 44.62%
- Tumor weight ([5]; intermediate, 18.75 mg/kg): 0.700 g
- Rate of inhibiting tumors [5, 10]: 44.62%
- Rate of inhibiting tumors ([5]; low, 9.38 mg/kg): 42.33%
- Tumor weight ([5]; low, 9.38 mg/kg): 0.730 g
- Rate of inhibiting tumors [5, 11]: 42.33%
- inhibition of tumor growth compared with negative control ([6]; 36.7 mg/kg, P<0.05): significant inhibition role
- Rate of inhibiting tumors ([6]; high, 36.7 mg/kg): 77.46%*
- Tumor weight ([6]; high, 36.7 mg/kg): 0.417 g
- Rate of inhibiting tumors [6, 9]: 77.46%
- Rate of inhibiting tumors ([6]; intermediate, 18.75 mg/kg): 67.48%
- Tumor weight ([6]; intermediate, 18.75 mg/kg): 0.603 g
- Rate of inhibiting tumors [6, 10]: 67.48%
- Rate of inhibiting tumors ([6]; low, 9.38 mg/kg): 57.87%
- Tumor weight ([6]; low, 9.38 mg/kg): 0.781 g
- Rate of inhibiting tumors [6, 11]: 57.87%
- Rate of inhibiting tumors ([7]; Once 3 days): 65.04%*
- Tumor weight ([7]; Once 3 days): 0.678 g
- Rate of inhibiting tumors ([7]; Once 3 days, listed as polypeptide): 65.04%
- inhibition of tumor growth compared with negative control ([7]; P<0.05): significant inhibition role
- inhibition of tumor growth compared with negative control ([8]; 36.7 mg/kg, P<0.05): significant inhibition role
- toxic and side effects ([8]; 36.7 mg/kg, compared with positive cisplatin group): no obvious toxic and side effects
- Rate of inhibiting tumors ([8]; high, 36.7 mg/kg): 68.22%*
- Tumor weight ([8]; high, 36.7 mg/kg): 0.382 g
- Rate of inhibiting tumors [8, 9]: 68.22%
- Rate of inhibiting tumors ([8]; intermediate, 18.75 mg/kg): 66.19%
- Tumor weight ([8]; intermediate, 18.75 mg/kg): 0.406 g
- Rate of inhibiting tumors ([8]; low, 9.38 mg/kg): 55.32%
- Tumor weight ([8]; low, 9.38 mg/kg): 0.537 g
- Rate of inhibiting tumors [8, 11]: 55.32%
